Test results from the supplement of paper PMC10883282.
± gives the standard deviation of the averaged measurements.

Tests used:
Experiment in all cases: relative viability vs DMSO control (72 h) (fraction); higher = more viable cells
[1] = system: G401
How it was run: (§1)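 Sarcoma cell lines in 384-well plates, seeded to reach 80–90% confluence, were given compound after 24 h and kept 72 h at 37 °C, 5% CO2, with 0.1% DMSO vehicle and a 5 µM positive control. Relative viability came from ATPLite as percent growth, averaged over up to triplicate wells. On the rescaled values, 1 equals full and 0 equals none.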

[2] = system: RD-ES
How it was run: as §1

[3] = system: HT1080
How it was run: as §1

[4] = system: SW982
How it was run: as §1

[5] = system: SW1353
How it was run: as §1

[6] = system: SW684
How it was run: as §1

[7] = system: SK-ES-1
How it was run: as §1

[8] = system: KHOS-240S
How it was run: as §1

[9] = system: A204
How it was run: as §1

[10] = system: SW872
How it was run: as §1

[11] = system: SYO-1
How it was run: as §1

[12] = system: KHOS-NP
How it was run: as §1

Cc1cc2c(F)c(Oc3ncnn4cc(OC[C@@H](C)O)c(C)c34)ccc2[nH]1 [Brivanib]
Settings | relative viability
[1], 0.00017 µM | 0.939 ± 0.045
[1], 0.00051 µM | 0.989 ± 0.036
[1], 0.00152 µM | 0.965 ± 0.039
[1], 0.00457 µM | 0.921 ± 0.015
[1], 0.01372 µM | 0.969 ± 0.058
[1], 0.04115 µM | 0.979 ± 0.075
[1], 0.1235 µM | 0.964 ± 0.036
[1], 0.3704 µM | 0.99 ± 0.034
[1], 1.111 µM | 0.979 ± 0.021
[1], 3.333 µM | 0.955 ± 0.0057
[1], 10 µM | 0.922 ± 0.033
[2], 0.00017 µM | 0.961 ± 0.035
[2], 0.00051 µM | 0.966 ± 0.018
[2], 0.00152 µM | 0.985 ± 0.043
[2], 0.00457 µM | 1 ± 0.019
[2], 0.01372 µM | 0.996 ± 0.036
[2], 0.04115 µM | 1 ± 0.033
[2], 0.1235 µM | 1.01 ± 0.016
[2], 0.3704 µM | 0.994 ± 0.047
[2], 1.111 µM | 1 ± 0.026
[2], 3.333 µM | 0.988 ± 0.025
[2], 10 µM | 0.947 ± 0.044
[3], 0.00017 µM | 1.04 ± 0.013
[3], 0.00051 µM | 1.026 ± 0.0022
[3], 0.00152 µM | 1.05 ± 0.018
[3], 0.00457 µM | 1.06 ± 0.018
[3], 0.01372 µM | 1.07 ± 0.063
[3], 0.04115 µM | 1.02 ± 0.018
[3], 0.1235 µM | 1.02 ± 0.0094
[3], 0.3704 µM | 1.06 ± 0.067
[3], 1.111 µM | 1.05 ± 0.033
[3], 3.333 µM | 1.07 ± 0.039
[3], 10 µM | 1.01 ± 0.025
[4], 0.00017 µM | 1.03 ± 0.058
[4], 0.00051 µM | 1.03 ± 0.055
[4], 0.00152 µM | 1.05 ± 0.036
[4], 0.00457 µM | 1.07 ± 0.028
[4], 0.01372 µM | 1.05 ± 0.019
[4], 0.04115 µM | 1.05 ± 0.051
[4], 0.1235 µM | 1.035 ± 0.0083
[4], 0.3704 µM | 1.06 ± 0.051
[4], 1.111 µM | 1.034 ± 0.0077
[4], 3.333 µM | 1.07 ± 0.03
[4], 10 µM | 1.06 ± 0.038
[5], 0.00017 µM | 0.963 ± 0.04
[5], 0.00051 µM | 0.991 ± 0.012
[5], 0.00152 µM | 0.952 ± 0.029
[5], 0.00457 µM | 0.96 ± 0.03
[5], 0.01372 µM | 0.976 ± 0.029
[5], 0.04115 µM | 0.935 ± 0.025
[5], 0.1235 µM | 0.944 ± 0.02
[5], 0.3704 µM | 1.01 ± 0.041
[5], 1.111 µM | 0.982 ± 0.035
[5], 3.333 µM | 1 ± 0.019
[5], 10 µM | 0.997 ± 0.046
[6], 0.00017 µM | 1.1 ± 0.037
[6], 0.00051 µM | 1.11 ± 0.025
[6], 0.00152 µM | 1.12 ± 0.026
[6], 0.00457 µM | 1.13 ± 0.055
[6], 0.01372 µM | 1.146 ± 0.003
[6], 0.04115 µM | 1.15 ± 0.034
[6], 0.1235 µM | 1.12 ± 0.034
[6], 0.3704 µM | 1.15 ± 0.025
[6], 1.111 µM | 1.12 ± 0.033
[6], 3.333 µM | 1.16 ± 0.056
[6], 10 µM | 1.21 ± 0.024
[7], 0.00017 µM | 1.04 ± 0.02
[7], 0.00051 µM | 1.04 ± 0.042
[7], 0.00152 µM | 1.07 ± 0.04
[7], 0.00457 µM | 1.07 ± 0.043
[7], 0.01372 µM | 1.02 ± 0.02
[7], 0.04115 µM | 1.05 ± 0.027
[7], 0.1235 µM | 1.04 ± 0.04
[7], 0.3704 µM | 0.997 ± 0.039
[7], 1.111 µM | 1.022 ± 0.0096
[7], 3.333 µM | 1.06 ± 0.053
[7], 10 µM | 0.952 ± 0.027
[8], 0.00017 µM | 1.04 ± 0.011
[8], 0.00051 µM | 1.035 ± 0.0099
[8], 0.00152 µM | 1.03 ± 0.029
[8], 0.00457 µM | 1.05 ± 0.025
[8], 0.01372 µM | 1.05 ± 0.04
[8], 0.04115 µM | 1.04 ± 0.016
[8], 0.1235 µM | 1.04 ± 0.016
[8], 0.3704 µM | 1.05 ± 0.013
[8], 1.111 µM | 1.03 ± 0.013
[8], 3.333 µM | 1.041 ± 0.0099
[8], 10 µM | 0.961 ± 0.073
[9], 0.00017 µM | 1.05 ± 0.027
[9], 0.00051 µM | 1.035 ± 0.0059
[9], 0.00152 µM | 1.02 ± 0.028
[9], 0.00457 µM | 1.07 ± 0.072
[9], 0.01372 µM | 1.06 ± 0.072
[9], 0.04115 µM | 1.03 ± 0.068
[9], 0.1235 µM | 1.01 ± 0.032
[9], 0.3704 µM | 1.01 ± 0.029
[9], 1.111 µM | 0.987 ± 0.011
[9], 3.333 µM | 0.95 ± 0.067
[9], 10 µM | 0.642 ± 0.014
[10], 0.00017 µM | 0.989 ± 0.024
[10], 0.00051 µM | 0.999 ± 0.02
[10], 0.00152 µM | 0.996 ± 0.042
[10], 0.00457 µM | 1.04 ± 0.022
[10], 0.01372 µM | 1.009 ± 0.0077
[10], 0.04115 µM | 1 ± 0.024
[10], 0.1235 µM | 1.03 ± 0.031
[10], 0.3704 µM | 1.05 ± 0.019
[10], 1.111 µM | 1.06 ± 0.019
[10], 3.333 µM | 1.056 ± 0.0084
[10], 10 µM | 1.02 ± 0.02
[11], 0.00017 µM | 0.941 ± 0.014
[11], 0.00051 µM | 0.936 ± 0.01
[11], 0.00152 µM | 0.931 ± 0.017
[11], 0.00457 µM | 0.935 ± 0.011
[11], 0.01372 µM | 0.919 ± 0.011
[11], 0.04115 µM | 0.925 ± 0.029
[11], 0.1235 µM | 0.921 ± 0.025
[11], 0.3704 µM | 0.906 ± 0.053
[11], 1.111 µM | 0.861 ± 0.05
[11], 3.333 µM | 0.792 ± 0.049
[11], 10 µM | 0.609 ± 0.036
[12], 0.00017 µM | 1.04 ± 0.011
[12], 0.00051 µM | 1.05 ± 0.017
[12], 0.00152 µM | 1.05 ± 0.027
[12], 0.00457 µM | 1.04 ± 0.018
[12], 0.01372 µM | 1.06 ± 0.014
[12], 0.04115 µM | 1.058 ± 0.0053
[12], 0.1235 µM | 1.06 ± 0.012
[12], 0.3704 µM | 1.07 ± 0.033
[12], 1.111 µM | 1.05 ± 0.021
[12], 3.333 µM | 1.07 ± 0.033
[12], 10 µM | 0.964 ± 0.035
